# Measurements: patent US20100130477A1, “Spirocyclobutyl Piperidine Derivatives” (ASTRAZENECA AB, priority 2008, published 2010)
# Biological target: T1, human Histamine H3 receptor (hH3R) (Homo sapiens, UniProt Q9Y5N1)
# T1 construct: expressed in transfected cells; host or cells: CHO cells (Chinese Hamster Ovary); membranes
# Test: GTPγS Binding Assay (antagonist activity, [35S]GTPγS, (R)-α-methyl histamine 30 nM)
# Type: biochemical
# Settings: membranes from CHO cells expressing hH3R, 90 minutes at room temperature
# Procedure: Guanosine 5′-O-(3-[^35S]thio)triphosphate [GTPγS] Binding Assay
# A GTPγS binding assay can be used to investigate antagonist properties of compounds in CHO cells (Chinese Hamster Ovary) transfected with human Histamine H3 receptor (hH3R). Membranes from CHO cells expressing hH3R (10 μg/well) are diluted in GTPγS assay buffer (20 mM Hepes, 10 mM MgCl2, 100 mM NaCl, pH 7.4) and preincubated with saponine (3 μg/ml), GDP (10 μM) and PVT-WGA SPA beads (125 μg/well) (Amersham) for 30 minutes. To determine antagonist activity, (R)-α-methyl histamine (30 nM) is added in 96 well SPA plate with [^35S]GTPγS (0.2 nM) and various concentration of H3R antagonists. The GTPγS binding assay is started with addition of the mixture membrane/saponine/GDP and incubated for 90 minutes at room temperature. The amount of bound [^35S]GTPγS is determined by using the MicroBeta Trilux counter (PerkinElmer). The percentage of [^35S]GTPγS bound in each sample is calculated as a percentage of that bound control sample incubated in absence of H3 antagonist. Duplicate determinations are obtained for each concentration, and the data are analyzed using ExcelFit4 to obtain the IC50.
# T1 sequence (Q9Y5N1 whole entry): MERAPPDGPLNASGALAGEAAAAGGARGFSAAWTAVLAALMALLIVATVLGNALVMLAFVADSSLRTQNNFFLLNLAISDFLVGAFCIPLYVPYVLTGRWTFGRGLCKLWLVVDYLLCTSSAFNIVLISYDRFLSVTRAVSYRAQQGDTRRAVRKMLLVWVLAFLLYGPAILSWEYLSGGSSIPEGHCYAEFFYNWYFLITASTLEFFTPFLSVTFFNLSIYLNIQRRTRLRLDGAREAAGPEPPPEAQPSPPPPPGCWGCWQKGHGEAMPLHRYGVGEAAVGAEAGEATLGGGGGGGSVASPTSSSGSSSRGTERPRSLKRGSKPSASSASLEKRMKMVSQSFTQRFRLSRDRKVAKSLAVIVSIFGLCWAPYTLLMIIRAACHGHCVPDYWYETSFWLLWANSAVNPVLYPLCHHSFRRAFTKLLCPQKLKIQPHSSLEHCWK
row,Compound,IC50
1,"CC(C)N1CCN(C(=O)C2CC3(CCN(C(=O)N(C)C)CC3)C2)CC1 [Example 37, 2-(4-isopropylpiperazine-1-carbonyl)-N,N-dimethyl-7-azaspiro[3.5]nonane-7-carboxamide]",114 nM
2,"O=C(C1CC2(CCN(S(=O)(=O)c3ccc(F)cc3)CC2)C1)N1CCCN(C2CCC2)CC1 [Example 38, (4-cyclobutyl-1,4-diazepan-1-yl)(7-(4-fluorophenylsulfonyl)-7-azaspiro[3.5]nonan-2-yl)methanone]",8.9 nM
3,"O=C(C1CC2(CCN(S(=O)(=O)c3cccc(F)c3)CC2)C1)N1CCCN(C2CCC2)CC1 [Example 39, (4-cyclobutyl-1,4-diazepan-1-yl)(7-(3-fluorophenylsulfonyl)-7-azaspiro[3.5]nonan-2-yl)methanone]",9.97 nM
4,"O=C(C1CC2(CCN(S(=O)(=O)c3ccccc3F)CC2)C1)N1CCCN(C2CCC2)CC1 [Example 40, (4-cyclobutyl-1,4-diazepan-1-yl)(7-(2-fluorophenylsulfonyl)-7-azaspiro[3.5]nonan-2-yl)methanone]",6.22 nM
5,"O=C(C1CC2(CCN(S(=O)(=O)c3ccccc3)CC2)C1)N1CCCN(C2CCC2)CC1 [Example 41, (4-cyclobutyl-1,4-diazepan-1-yl)(7-(phenylsulfonyl)-7-azaspiro[3.5]nonan-2-yl)methanone]",8.71 nM
6,"O=C(c1ccccn1)N1CCC2(CC1)CC(C(=O)N1CCCN(C3CCC3)CC1)C2 [Example 42, (4-cyclobutyl-1,4-diazepan-1-yl)(7-picolinoyl-7-azaspiro[3.5]nonan-2-yl)methanone]",15 nM
7,"Cc1cc(C(=O)N2CCC3(CC2)CC(C(=O)N2CCCN(C4CCC4)CC2)C3)ccn1 [Example 43, (4-cyclobutyl-1,4-diazepan-1-yl)(7-(2-methylisonicotinoyl)-7-azaspiro[3.5]nonan-2-yl)methanone]",8.87 nM
8,"Cc1cnccc1C(=O)N1CCC2(CC1)CC(C(=O)N1CCCN(C3CCC3)CC1)C2 [Example 44, (4-cyclobutyl-1,4-diazepan-1-yl)(7-(3-methylisonicotinoyl)-7-azaspiro[3.5]nonan-2-yl)methanone]",8.45 nM
9,"O=C(c1ccncc1)N1CCC2(CC1)CC(C(=O)N1CCCN(C3CCC3)CC1)C2 [Example 45, (4-cyclobutyl-1,4-diazepan-1-yl)(7-isonicotinoyl-7-azaspiro[3.5]nonan-2-yl)methanone]",7.61 nM
10,"Cc1cncc(C(=O)N2CCC3(CC2)CC(C(=O)N2CCCN(C4CCC4)CC2)C3)c1 [Example 46, (4-cyclobutyl-1,4-diazepan-1-yl)(7-(5-methylnicotinoyl)-7-azaspiro[3.5]nonan-2-yl)methanone]",5.75 nM
11,"O=C(c1cccnc1)N1CCC2(CC1)CC(C(=O)N1CCCN(C3CCC3)CC1)C2 [Example 47, (4-cyclobutyl-1,4-diazepan-1-yl)(7-nicotinoyl-7-azaspiro[3.5]nonan-2-yl)methanone]",8.27 nM
12,"O=C(c1ccccc1)N1CCC2(CC1)CC(C(=O)N1CCCN(C3CCC3)CC1)C2 [Example 48, (7-benzoyl-7-azaspiro[3.5]nonan-2-yl)(4-cyclobutyl-1,4-diazepan-1-yl)methanone]",12.7 nM
13,"N#Cc1ccc(C(=O)N2CCC3(CC2)CC(C(=O)N2CCCN(C4CCC4)CC2)C3)cc1 [Example 49, 4-(2-(4-cyclobutyl-1,4-diazepane-1-carbonyl)-7-azaspiro[3.5]nonane-7-carbonyl)benzonitrile]",5.28 nM
14,"N#Cc1cccc(C(=O)N2CCC3(CC2)CC(C(=O)N2CCCN(C4CCC4)CC2)C3)c1 [Example 50, 3-(2-(4-cyclobutyl-1,4-diazepane-1-carbonyl)-7-azaspiro[3.5]nonane-7-carbonyl)benzonitrile]",7.62 nM
15,"N#Cc1ccccc1C(=O)N1CCC2(CC1)CC(C(=O)N1CCCN(C3CCC3)CC1)C2 [Example 51, 2-(2-(4-cyclobutyl-1,4-diazepane-1-carbonyl)-7-azaspiro[3.5]nonane-7-carbonyl)benzonitrile]",5.02 nM
16,"CC(C)N1CCCN(C(=O)C2CC3(CCN(S(C)(=O)=O)CC3)C2)CC1 [Example 52, (4-isopropyl-1,4-diazepan-1-yl)(7-(methylsulfonyl)-7-azaspiro[3.5]nonan-2-yl)methanone]",56.4 nM

row,Compound,IC50
1,"Cc1cc(C(=O)N2CCC3(CC2)CC(C(=O)N2CCCN(C(C)C)CC2)C3)ccn1 [Example 53, (4-isopropyl-1,4-diazepan-1-yl)(7-(2-methylisonicotinoyl)-7-azaspiro[3.5]nonan-2-yl)methanone]",160 nM
2,"CC(C)N1CCCN(C(=O)C2CC3(CCN(C(=O)c4ccncc4)CC3)C2)CC1 [Example 54, (7-isonicotinoyl-7-azaspiro[3.5]nonan-2-yl)(4-isopropyl-1,4-diazepan-1-yl)methanone]",161 nM
3,"CC(C)N1CCCN(C(=O)C2CC3(CCN(C(=O)c4cccnc4)CC3)C2)CC1 [Example 55, (4-isopropyl-1,4-diazepan-1-yl)(7-nicotinoyl-7-azaspiro[3.5]nonan-2-yl)methanone]",115 nM
4,"CC(C)N1CCCN(C(=O)C2CC3(CCN(C(=O)N(C)C)CC3)C2)CC1 [Example 56, 2-(4-isopropyl-1,4-diazepane-1-carbonyl)-N,N-dimethyl-7-azaspiro[3.5]nonane-7-carboxamide]",269 nM
5,"Cc1cc(C(=O)N2CCC3(CC2)CC(C(=O)N2CCN(C4CCC4)CC(C)(C)C2)C3)ccn1 [Example 57, (4-cyclobutyl-6,6-dimethyl-1,4-diazepan-1-yl)(7-(2-methylisonicotinoyl)-7-azaspiro[3.5]nonan-2-yl)methanone]",707 nM
6,"CS(=O)(=O)N1CCC2(CC1)CC(C(=O)N1CCN(C3CCCC3)CC1)C2 [Example 58, (4-cyclopentylpiperazin-1-yl)(7-(methylsulfonyl)-7-azaspiro[3.5]nonan-2-yl)methanone]",63 nM
7,"C[C@H]1CN(C(=O)C2CC3(CCN(S(C)(=O)=O)CC3)C2)CCN1C1CCC1 [Example 59, ((S)-4-cyclobutyl-3-methylpiperazin-1-yl)(7-(methylsulfonyl)-7-azaspiro[3.5]nonan-2-yl)methanone]",368 nM
8,"CC(C)N1CCN(C(=O)C2CC3(CCN(S(C)(=O)=O)CC3)C2)C[C@H]1C [Example 60, ((R)-4-isopropyl-3-methylpiperazin-1-yl)(7-(methylsulfonyl)-7-azaspiro[3.5]nonan-2-yl)methanone]",177 nM
9,"CC(C)N1CCN(C(=O)C2CC3(CCN(S(C)(=O)=O)CC3)C2)C[C@@H]1C [Example 61, ((S)-4-isopropyl-3-methylpiperazin-1-yl)(7-(methylsulfonyl)-7-azaspiro[3.5]nonan-2-yl)methanone]",179 nM
10,"C[C@@H]1CN(C2CCC2)CCN1C(=O)C1CC2(CCN(S(C)(=O)=O)CC2)C1 [Example 62, ((R)-4-cyclobutyl-2-methylpiperazin-1-yl)(7-(methylsulfonyl)-7-azaspiro[3.5]nonan-2-yl)methanone]",4.25 nM
11,"C[C@H]1CN(C2CCC2)CCN1C(=O)C1CC2(CCN(S(C)(=O)=O)CC2)C1 [Example 63, ((S)-4-cyclobutyl-2-methylpiperazin-1-yl)(7-(methylsulfonyl)-7-azaspiro[3.5]nonan-2-yl)methanone]",21.2 nM
12,"N#Cc1cnccc1C(=O)N1CCC2(CC1)CC(C(=O)N1CCN(C3CCC3)CC1)C2 [Example 64, 4-(2-(4-cyclobutylpiperazine-1-carbonyl)-7-azaspiro[3.5]nonane-7-carbonyl)nicotinonitrile]",16.8 nM
13,"O=C(C1CC2(CCN(c3cnccn3)CC2)C1)N1CCN(C2CCC2)CC1 [Example 65, (4-cyclobutylpiperazin-1-yl)(7-(pyrazin-2-yl)-7-azaspiro[3.5]nonan-2-yl)methanone]",51.7 nM
14,"O=C(C1CC2(CCN(c3ccncc3)CC2)C1)N1CCN(C2CCC2)CC1 [Example 66, (4-cyclobutylpiperazin-1-yl)(7-(pyridin-4-yl)-7-azaspiro[3.5]nonan-2-yl)methanone]",10.1 nM
15,"O=C(C1CC2(CCN(c3cncnc3)CC2)C1)N1CCN(C2CCC2)CC1 [Example 67, (4-cyclobutylpiperazin-1-yl)(7-(pyrimidin-5-yl)-7-azaspiro[3.5]nonan-2-yl)methanone]",22.9 nM
